The nature of data set [1]: Thermodynamic solubility of elafibranor in aqueous medium. The format is physicochemical. The protocol:
The thermodynamic solubility of the basic elafibranor is studied over a period of 24 hours and 72 hours in various aqueous buffers in the presence or not of surfactants. Batch number EM0274L2 is used for this work. After 24 hours and 72 hours of incubation at ambient temperature (22°−24° C.), the solutions are sampled and then filtered over 0.2 μm polycarbonate filters in flasks for LCMS analyses, and diluting once in DMSO before stirring for 2 minutes (vortex or sonification).

A short description of data set [2]: Solubility test on various elafibranor salts. The class given is physicochemical. Particulars: for Solubility in aqueous medium / Solubility: listed as Elafibranor (GFT505) Amorphous free basic.
The conditions of data set [3]: all clinical trials; cited from earlier work.
Data set [4] has as its system non-alcoholic steatohepatitis NASH. Conditions: cited from earlier work.
Setting [5] is: Buffer pH 4.6, ambient temperature (22-24° C.).
[6] abbreviates: Buffer pH 7.4, ambient temperature (22-24° C.).
Setting [7] is: Buffer pH 8.5, ambient temperature (22-24° C.).
Setting [8] is: Polyethylene glycol 400, ambient temperature (22-24° C.).
The mark [9] stands for this setting: Propylene glycol, ambient temperature (22-24° C.).

Values after ≈ are worked out from the molar mass of the structure shown. Values joined by “and” are separate entries in the source; they are usually repeats but may differ in a detail not shown here. Equal values may be shown once.

Consider `CSc1ccc(C(=O)/C=C/c2cc(C)c(OC(C)(C)C(=O)O)c(C)c2)cc1` [elafibranor, 2-[2,6 dimethyl-4-[3-[4-(methylthio)phenyl]-3-oxo-1(E)-propenyl]phenoxyl]-2-methylpropanoic acid], for which the “Solubility after 24 hours” value stood at 44 µg/mL (≈ 0.114 mM) in data set [1] (setting [5]); 194 µg/mL (≈ 0.505 mM) in data set [1] (setting [6]); 1701 µg/mL (≈ 4.42 mM) in data set [1] (setting [7]); 15023 µg/mL (≈ 39.1 mM) in data set [1] (setting [8]); 12905 µg/mL (≈ 33.6 mM) in data set [1] (setting [9]). The “Solubility after 72 hours” value in data set [1] (setting [5]) was 110 μM and 0.042 mg/ml; in data set [1] (setting [6]), 0.234 mg/mL (≈ 0.609 mM); in data set [1] (setting [7]), 1.644 mg/mL (≈ 4.28 mM); in data set [1] (setting [8]), 15.774 mg/mL (≈ 41 mM); in data set [1] (setting [9]), 13.506 mg/mL (≈ 35.1 mM). For the same molecule, the “Solubility in an aqueous medium” value in data set [1] (in words) is “low”. The “Effect of addition of cosolvent on solubility” value in data set [1] (propylene glycol or PEG 400) is recorded as “significantly improves the solubility”. Besides, the “Solubility in aqueous medium” value is 44 µg/mL in data set [2] (Buffer pH 4.6, ambient temperature); 194 µg/mL in data set [2] (Buffer pH 7.4, ambient temperature); 1701 µg/mL in data set [2] (Buffer pH 8.5, ambient temperature). Further, the Solubility turned out to be 15023 µg/mL in data set [2] (Polyethylene glycol 400, ambient temperature) and 12905 µg/mL in data set [2] (Propylene glycol, ambient temperature). Also, in data set [2] (aqueous medium, ambient temperature, descriptive term), the “Solubility (according to Ph. Eur.)” value was “Very low solubility”. In data set [3], the Tolerance profile entry is given as “very good tolerance profile”. The “Biochemical markers of hepatic malfunctioning (ALAT, ASAT, γGT, ALP)” value in data set [4] is “improvement”.

Values taken from US11185520B2, “Composition comprising at least one water-soluble pharmaceutically acceptable salt of elafibranor having improved intestinal absorption” (NASHPHARM, priority 2016, dated 2021).
